Source: publication PMC6151521, “Characterization of the Ornithine Hydroxylation Step in Albachelin Biosynthesis” (Molecules : A Journal of Synthetic Chemistry and Natural …, 2017)

Tested on: T1, albachelin monooxygenase (AMO)
T1 construct: expressed in E. coli (pVP56K) as 8xHis-MBP fusion, tag removed with TEV protease; MW 49 kDa
Test: oxygen consumption (Oxygraph)
Type: biochemical, Amycolatopsis alba
Settings: holo-AMO, 100 mM sodium phosphate pH 7.5
From the text: oxygen consumption (Oxygraph) on albachelin monooxygenase (AMO)

| Compound | Km (5 mM NADPH) [µM] | Km (10 mM Orn) [µM] |
| --- | --- | --- |
| NCCC[C@H](N)C(=O)O [Orn] | 305 ± 108 | – |
| NC(=O)C1=CN([C@@H]2O[C@H](COP(=O)(O)OP(=O)(O)OC[C@H]3O[C@@H](n4cnc5c(N)ncnc54)[C@H](OP(=O)(O)O)[C@@H]3O)[C@@H](O)[C@H]2O)C=CC1 [NADPH] | – | 1400 ± 160 |
| NC(=O)C1=CN([C@@H]2O[C@H](COP(=O)(O)OP(=O)(O)OC[C@H]3O[C@@H](n4cnc5c(N)ncnc54)[C@H](O)[C@@H]3O)[C@@H](O)[C@H]2O)C=CC1 [NADH] | – | 320 ± 100 |
